Results taken from US20070071833A1, “Fungicidal mixtures for controlling rice pathogens” (BASF Aktiengesellschaft, priority 2003, published 2007).

Test system: Cochliobolus miyabeanus
Assay: activity against brown spot of rice caused by Cochliobolus miyabeanus, protective application (potted rice seedlings)
Assay type: in vivo
Conditions: individual active compound, rice cultivar Tai-Nong 67, protective spray, evaluated after six days
Description: The active compounds, separately or jointly, were prepared as a stock solution with 0.25% by weight of active compound in acetone or DMSO. 1% by weight of the emulsifier Uniperol® EL (wetting agent having emulsifying and dispersing action based on ethoxylated alkylphenols) was added to this solution, and the solution was diluted with water to the desired concentration.
Use example—activity against brown spot of rice caused by Cochliobolus miyabeanus, protective application
Leaves of potted rice seedlings of the cultivar “Tai-Nong 67” were sprayed to runoff point with an aqueous suspension of the concentration of active compound stated below. The next day, the plants were inoculated with an aqueous spore suspension of Cochliobolus miyabeanus. The test plants were then placed in climatized chambers at 22-24° C. and 95-99% relative atmospheric humidity for six days. The extent of the development of the infection on the leaves was then determined visually.
Evaluation was carried out by determining the percentage of infected leaf area. These percentages were converted into efficacies.
The efficacy (E) is calculated as follows using Abbot's formula: E=(1−α/β)·100 • α corresponds to the fungicidal infection of the treated plants in % and • β corresponds to the fungicidal infection of the untreated (control) plants in %
An efficacy of 0 means that the infection level of the treated plants corresponds to that of the untreated control plants; an efficacy of 100 means that the treated plants were not infected.
The expected efficacies of mixtures of active compounds are determined using Colby's formula (R. S. Colby, Weeds, 15, 20-22, 1967) and compared with the observed efficacies.
Colby's formula: E=x+y−x·y/100 • E expected efficacy, expressed in % of the untreated control, when using the mixture of the active compounds A and B at the concentrations a and b • x efficacy, expressed in % of the untreated control, when using the active compound A at the concentration a • y efficacy, expressed in % of the untreated control, when using the active compound B at the concentration b

SMILES	Efficacy in % of the untreated control (1 ppm in the spray liquor)	Efficacy in % of the untreated control (4 ppm in the spray liquor)
CC1CCN(c2c(-c3c(F)cc(F)cc3F)c(Cl)nc3ncnn23)CC1 [I, 5-chloro-7-(4-methylpiperidin-1-yl)-6-(2,4,6-trifluorophenyl)-[1,2,4]tri-azolo[1,5-a]pyrimidine]	4%	28%
S1SSSSSSS1 [II (sulfur), sulfur]	4%	4%
CC1CCN(c2c(-c3c(F)cccc3F)c(Cl)nc3ncnn23)CC1 [comparative compound A]	28%	40%
C[C@H](Nc1c(-c2c(F)cc(F)cc2F)c(Cl)nc2ncnn12)C(F)(F)F [comparative compound B]	0%	16%
